Results taken from ChEMBL document CHEMBL3526130, “An evaluation of using rat-derived single-dose neuropharmacokinetic parameters to project accurately large animal unbound brain drug concentrations” (Drug Metab Dispos, 2012).

Assays:
Type in all cases: ADME, organism-based
[1] = Ratio of drug level in brain to plasma in Sprague-Dawley rat at 3 mg/kg, sc by LC-MS/MS analysis; parameters: dose 3 mg/kg, route subcutaneous; details: read-out: BPR
[2] = AUC(0 to infinity) in Sprague-Dawley rat plasma at 3 mg/kg, sc by LC-MS/MS analysis; parameters: time infinity, dose 3 mg/kg, route subcutaneous
[3] = AUC(0 to 7 hrs) in Sprague-Dawley rat cerebrospinal fluid at 3 mg/kg, sc by LC-MS/MS analysis; parameters: time < 7 hr, dose 3 mg/kg, route subcutaneous
[4] = Ratio of unbound brain concentration to drug level in cerebrospinal fluid in Sprague-Dawley rat at 3 mg/kg, sc by LC-MS/MS analysis; parameters: dose 3 mg/kg, route subcutaneous; details: in vivo
[5] = tested on: Nucleic Acid; assay: Ratio of drug level in cerebrospinal fluid to unbound plasma concentration in Sprague-Dawley rat at 3 mg/kg, sc by LC-MS/MS analysis; parameters: dose 3 mg/kg, route subcutaneous; details: in vivo
[6] = AUC(0 to infinity) in Sprague-Dawley rat brain at 3 mg/kg, sc by LC-MS/MS analysis; parameters: dose 3 mg/kg, route subcutaneous, time infinity
[7] = AUC(0 to infinity) in Sprague-Dawley rat cerebrospinal fluid at 3 mg/kg, sc by LC-MS/MS analysis; parameters: dose 3 mg/kg, route subcutaneous, time infinity
[8] = Ratio of unbound drug level in brain to plasma in Sprague-Dawley rat at 3 mg/kg, sc by LC-MS/MS analysis; parameters: dose 3 mg/kg, route subcutaneous
[9] = AUC(0 to 7 hrs) in Sprague-Dawley rat brain at 3 mg/kg, sc by LC-MS/MS analysis; parameters: time < 7 hr, dose 3 mg/kg, route subcutaneous
[10] = AUC(0 to 7 hrs) in Sprague-Dawley rat plasma at 3 mg/kg, sc by LC-MS/MS analysis; parameters: time < 7 hr, dose 3 mg/kg, route subcutaneous

Row | Kp [1] | AUC(0-inf) [2] [ng·h/mL] | AUC(0-t) at 7 h [3] [ng·h/mL] | Ratio [4] | Ratio [5] | AUC(0-inf) [6] [ng·h/mL] | AUC(0-inf) [7] [ng·h/mL] | Kp uu [8] | AUC(0-t) at 7 h [9] [ng·h/mL] | AUC(0-t) at 7 h [10] [ng·h/mL] | Compound
1 | 1.12 | 2280 | 456 | 0.5 | 0.9 | 2550 | 458 | 0.45 | 2540 | 2270 | NC(=O)N1c2ccccc2C=Cc2ccccc21 [CARBAMAZEPINE]
2 | 1.72 | 367 | 418 | 0.5 | 1.8 | 635 | 420 | 0.89 | 629 | 365 | CCN(CC)CCNC(=O)c1cc(Cl)c(N)cc1OC [METOCLOPRAMIDE]
3 | 0.1 | 1720 | 78.4 | 1.85 | 0.05 | 182 | 82.5 | 0.09 | 170 | 1700 | Nc1nc(O)c2ncn(COC(CO)CO)c2n1 [GANCICLOVIR]
